Experimental data published in US20030054411A1, “GPR motifs and uses thereof” (priority 2001, published 2003).
Blank lines part the entries; values can stand above or below the molecule they belong to. Where no end group is shown, it is not given here.

What was measured:
[1] = biological target: T1, Giα2 binding to GST-AGS3-GPR (Homo sapiens, UniProt P04899); assay: Protein interaction assay: Giα2 binding to AGS3-GPR with GPR peptides; details: 10 μM GDP; read-out: IC50 for blocking the binding of Giα2 to GST-AGS3-GPR
T1 construct: made in house; host or cells: Sf9 insect cells (Giα2)
T1 sequence (P04899 2-355 limits assumed): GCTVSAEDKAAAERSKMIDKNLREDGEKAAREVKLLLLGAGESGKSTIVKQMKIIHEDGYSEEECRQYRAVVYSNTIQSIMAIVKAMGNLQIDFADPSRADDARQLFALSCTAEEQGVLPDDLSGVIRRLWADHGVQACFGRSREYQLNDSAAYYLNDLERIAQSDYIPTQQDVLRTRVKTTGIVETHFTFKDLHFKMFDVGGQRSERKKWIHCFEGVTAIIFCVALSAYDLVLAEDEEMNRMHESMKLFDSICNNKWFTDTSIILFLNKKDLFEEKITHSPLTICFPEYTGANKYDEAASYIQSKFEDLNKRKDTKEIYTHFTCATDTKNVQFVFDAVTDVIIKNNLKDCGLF
Experimental: (§1) A and B, the carboxyl region of AGS3 (Pro^463-Ser^650) containing all four GPR repeats was generated as a His-tagged (A) or GST fusion (B) protein for protein interaction assays as described under Examples. All interactions were done in the presence of 10 μM GDP, and the input lanes represent one-tenth of the G-protein used in each interaction assay. A, Giα1 (75 nM) was incubated with 300 nM His-tagged AGS3-GPR in the absence and presence of increasing amounts of the GPR peptide, after which bound Giα was isolated on a nickel affinity matrix, and samples were processed for immunoblotting with Giα antisera. […] C and D, GTPγ^35S binding to G-proteins (100 nM) was measured in the absence and presence of peptides as described in the Examples. Data are expressed as the percent of specific binding (˜5 pmol) observed in the absence of peptide and represent the means±S.E. derived from three experiments. […]
(§2) Protein Interaction Assays—The GPR domain of AGS3 (Pro^463-Ser^650) containing the four GPR motifs was generated as a glutathione S-transferase fusion protein by polymerase chain reaction using the full-length cDNA of AGS3 as a template. […] The interaction of GST-AGS3-GPR and HIS-tagged AGS3-GPR with G-proteins was assessed by protein interaction experiments using purified G-protein as described previously (33). […]

Giα2 = biological target: T2, Giα2 (Homo sapiens, UniProt P04899); assay: GTPγS binding assay, Giα2; format: biochemical; details: G-protein 100 nM, 30 min, 24° C.; read-out: IC50 for inhibition of GTPγS binding to Giα2
T2 construct: made in house; host or cells: Sf9 insect cells
T2 sequence (P04899 whole entry): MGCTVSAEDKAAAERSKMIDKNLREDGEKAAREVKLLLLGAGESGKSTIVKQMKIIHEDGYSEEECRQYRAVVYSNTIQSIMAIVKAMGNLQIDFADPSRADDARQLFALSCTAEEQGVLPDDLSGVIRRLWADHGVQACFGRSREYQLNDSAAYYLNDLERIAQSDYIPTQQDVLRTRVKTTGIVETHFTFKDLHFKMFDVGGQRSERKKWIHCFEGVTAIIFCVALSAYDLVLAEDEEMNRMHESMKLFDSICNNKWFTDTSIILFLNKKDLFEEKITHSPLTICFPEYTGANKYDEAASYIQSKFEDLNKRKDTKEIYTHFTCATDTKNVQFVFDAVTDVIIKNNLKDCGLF
Experimental: (§3) A and B, the carboxyl region of AGS3 (Pro^463-Ser^650) containing all four GPR repeats was generated as a His-tagged (A) or GST fusion (B) protein for protein interaction assays as described under Examples. All interactions were done in the presence of 10 μM GDP, and the input lanes represent one-tenth of the G-protein used in each interaction assay. A, Giα1 (75 nM) was incubated with 300 nM His-tagged AGS3-GPR in the absence and presence of increasing amounts of the GPR peptide, after which bound Giα was isolated on a nickel affinity matrix, and samples were processed for immunoblotting with Giα antisera. The blot in the upper panel of A was stripped and reprobed with AGS3 antisera to provide internal controls for protein loading. B, Giα2 (75 nM) was incubated with 300 nM AGS3-GPR or GST in the presence and absence of 100 μM GPR consensus peptide, GPR peptide Q15A, or GPR peptide R23F. The immunoblots presented in A and B are representative of three experiments. C and D, GTPγ^35S binding to G-proteins (100 nM) was measured in the absence and presence of peptides as described in the Examples. Data are expressed as the percent of specific binding (˜5 pmol) observed in the absence of peptide and represent the means±S.E. derived from three experiments. The concentration of peptides in D is 10 μM.
GTPγS Binding Assays—GTPγS binding assays were generally conducted as described (39). G-proteins (100 nM) were preincubated for 20 min at 24° C. in the presence and absence of GPR peptides. Binding assays (duplicate determinations) were initiated by addition of 0.5 μM GTPγS (4.0×10^4 dpm/pmol), and incubations (total volume=50 μl) were continued for 30 min at 24° C. Both preincubations and GTPγS binding assays were conducted in binding buffer containing 2 mM MgCl2. Reactions were terminated by rapid filtration through nitrocellulose filters with 4×4-ml washes of stop buffer (50 mM Tris-HCl, 5 mM MgCl2, 1 mM EDTA, pH 7.4, at 4° C.). Radioactivity bound to the filters was determined by liquid scintillation counting. Nonspecific binding was defined by 100 μM […].

[2] = biological target: T3, Giα1 binding to GST-AGS3-GPR (Homo sapiens, UniProt P63096); assay: Protein interaction assay: Giα1 binding to AGS3-GPR with GPR peptide; details: 10 μM GDP; Giα1 75 nM, AGS3-GPR 300 nM; read-out: IC50 for blocking the binding of Giα1 to GST-AGS3-GPR
T3 construct: made in house; host or cells: Sf9 insect cells (Giα1); bacteria (His-AGS3-GPR)
T3 sequence (P63096 2-354 limits assumed): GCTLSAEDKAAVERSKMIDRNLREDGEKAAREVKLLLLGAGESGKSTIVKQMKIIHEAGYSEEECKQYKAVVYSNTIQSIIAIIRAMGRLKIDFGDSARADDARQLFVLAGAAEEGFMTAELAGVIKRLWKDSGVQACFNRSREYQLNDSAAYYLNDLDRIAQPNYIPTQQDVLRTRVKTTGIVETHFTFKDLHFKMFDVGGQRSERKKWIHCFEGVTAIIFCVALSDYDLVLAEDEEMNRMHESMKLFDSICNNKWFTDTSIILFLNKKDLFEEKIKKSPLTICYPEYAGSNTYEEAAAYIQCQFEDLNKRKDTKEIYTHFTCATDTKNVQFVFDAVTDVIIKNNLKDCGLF
Experimental: as §1, §2

Giα1 = biological target: T4, Giα1 (Homo sapiens, UniProt P63096); assay: GTPγS binding assay, Giα1; format: biochemical
T4 construct: made in house; host or cells: Sf9 insect cells
T4 sequence (P63096 whole entry): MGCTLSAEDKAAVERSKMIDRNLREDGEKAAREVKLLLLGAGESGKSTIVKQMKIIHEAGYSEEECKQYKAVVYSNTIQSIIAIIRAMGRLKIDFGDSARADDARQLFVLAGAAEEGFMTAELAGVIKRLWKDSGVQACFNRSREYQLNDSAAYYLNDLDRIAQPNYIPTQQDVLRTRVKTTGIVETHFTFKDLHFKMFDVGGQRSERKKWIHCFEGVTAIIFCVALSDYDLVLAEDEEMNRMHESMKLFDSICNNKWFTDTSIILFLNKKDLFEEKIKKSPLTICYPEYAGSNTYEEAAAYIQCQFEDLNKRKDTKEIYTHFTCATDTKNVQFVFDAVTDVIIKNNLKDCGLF
Experimental: as §3, with “The immunoblots presented in A and B are representative of three experiments.” left out, “The concentration of peptides in D is 10 μM.” left out
GTPγS Binding Assays—GTPγS binding assays were generally conducted as described (39). […] Radioactivity bound to the filters was determined by liquid scintillation counting. […]

Gtα = Gtα (Homo sapiens, UniProt P11488); assay: Competition with Gβγ subunits for binding to Gtα
Gtα, sequence (P11488 whole entry): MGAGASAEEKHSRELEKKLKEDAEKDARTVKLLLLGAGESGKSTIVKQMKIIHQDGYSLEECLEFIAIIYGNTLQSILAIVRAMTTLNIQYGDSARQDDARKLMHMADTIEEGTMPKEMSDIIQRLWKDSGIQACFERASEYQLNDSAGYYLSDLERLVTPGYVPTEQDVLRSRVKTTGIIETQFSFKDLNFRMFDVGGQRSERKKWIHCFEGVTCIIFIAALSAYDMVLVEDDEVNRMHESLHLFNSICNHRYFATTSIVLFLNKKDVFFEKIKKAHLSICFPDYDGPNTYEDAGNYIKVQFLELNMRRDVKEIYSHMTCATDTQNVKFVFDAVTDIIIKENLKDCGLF

IC50 [1]: ~200 nM
IC50 (Giα2): ~200 nM
IC50 [2]: ~200 nM
IC50 (Giα1; G-protein 100 nM, 30 min, 24° C., read-out: IC50 for inhibition of GTPγS binding to Giα1): ~200 nM
Molecule: TMGEEDFFDLLAKSQSKRMDDQRVDLAG-NH2 [GPR consensus peptide]

competition with Gβγ subunits for binding to Gtα (Gtα): effectively competed
GTPγS binding to Giα1 (AGS3-GPR protein) (Giα1): inhibited
B1: AGS3-GPR: GPR domain of AGS3 (Pro463-Ser650) containing the four GPR motifs, GST or His-tagged (protein)
chain: PREGSHSPLDSADVRVQVPRTGIPRAPSSDEECFFDLLSKFQSSRMDDQRCPLEEGQAGAAEATAAPTLEERAAQPSVTASPQTEEFFDLIASSQSRRLDDQRASVGSLPGLRITLNNVGHLRGDGDPQEPGDEFFNMLIKYQSSRIDDQRCPPPDVLPRGPTMPDEDFFSLIQRVQAKRMDEQRVDL
modifications: left off: a dimerising Fc or GST
notes: GPR domain of AGS3 (Pro463-Ser650) containing the four GPR motifs, GST or His-tagged
